Experimental findings from US20230055961A1, “PENTAFLUOROBENZENESULFONAMIDE DERIVATIVES AND USES THEREOF” (Dunad Therapeutics Ltd., priority 2019, published 2023) are described below.

For one assay, the target named is T1, JAK3 (Homo sapiens, UniProt P52333).
T1 sequence (P52333 1-1124): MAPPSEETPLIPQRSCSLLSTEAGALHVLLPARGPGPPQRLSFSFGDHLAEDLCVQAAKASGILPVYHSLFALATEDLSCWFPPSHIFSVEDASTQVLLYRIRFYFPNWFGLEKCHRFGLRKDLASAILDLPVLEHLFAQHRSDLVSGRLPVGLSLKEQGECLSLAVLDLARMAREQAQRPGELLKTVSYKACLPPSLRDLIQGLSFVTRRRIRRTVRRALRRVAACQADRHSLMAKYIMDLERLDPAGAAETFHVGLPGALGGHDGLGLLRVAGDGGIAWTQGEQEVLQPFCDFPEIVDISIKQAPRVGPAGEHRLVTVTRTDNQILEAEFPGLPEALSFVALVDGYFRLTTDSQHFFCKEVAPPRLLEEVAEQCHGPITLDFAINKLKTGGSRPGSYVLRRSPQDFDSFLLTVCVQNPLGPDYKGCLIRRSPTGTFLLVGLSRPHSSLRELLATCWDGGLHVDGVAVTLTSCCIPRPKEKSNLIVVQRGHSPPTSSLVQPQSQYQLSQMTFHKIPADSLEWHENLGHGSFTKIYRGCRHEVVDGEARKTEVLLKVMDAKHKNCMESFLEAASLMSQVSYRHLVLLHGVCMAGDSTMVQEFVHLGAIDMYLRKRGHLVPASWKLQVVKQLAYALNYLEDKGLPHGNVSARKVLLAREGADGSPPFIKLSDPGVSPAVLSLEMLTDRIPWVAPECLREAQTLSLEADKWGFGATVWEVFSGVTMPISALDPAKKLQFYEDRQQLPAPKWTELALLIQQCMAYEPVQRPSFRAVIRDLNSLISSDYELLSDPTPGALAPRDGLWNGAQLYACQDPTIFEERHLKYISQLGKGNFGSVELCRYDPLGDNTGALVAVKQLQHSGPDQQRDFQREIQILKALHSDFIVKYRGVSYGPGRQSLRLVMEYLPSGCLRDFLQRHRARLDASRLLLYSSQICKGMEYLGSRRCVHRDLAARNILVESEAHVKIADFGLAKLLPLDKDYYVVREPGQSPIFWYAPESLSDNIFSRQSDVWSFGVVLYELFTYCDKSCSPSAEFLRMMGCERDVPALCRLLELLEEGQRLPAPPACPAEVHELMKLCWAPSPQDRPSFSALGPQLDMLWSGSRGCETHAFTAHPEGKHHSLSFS
As to the kind of experiment: In vitro JAK3 inhibition, biochemical IC50 (no preincubation). To be noted: Table 8. The method, then:
(§1) In vitro BTK and JAK3 inhibition studies are shown in Table 7 and Table 8 (no preincubation).

Assay [1] concerns the target T2, BTK (Homo sapiens, UniProt Q06187). As to the kind of experiment: BTK washout experiment (residual activity after 400-fold dilution). It counts as biochemical. Particulars: 6-h incubation of 50 nM BTK with 177 nM compound, relative to DMSO alone. The protocol:
After a 3-h incubation of 40 nM BTK in the presence of 296 nM of compound Compound 5-1, a 400-fold dilution was performed to remove excess inhibitor.
By way of contrast, a “washout” experiment performed with ARQ-531 gives a very different result, because this compound lacks a warhead and is known to inhibit BTK reversibly. After a 6-h incubation of 50 nM BTK in the presence of 177 nM of ARQ-531, a 400-fold dilution was performed to remove excess inhibitor. […] This indicates to one of ordinary skill in the art that the enzyme was not inhibited irreversibly during the incubation with ARQ-531.

Assay [2] deals with T2, BTK. As to the kind of experiment: Total BTK degradation assay (Total BTK-HTRF) in RAMOS cells. It counts as cell-based. On the technique in general: TR-FRET usually uses a lanthanide donor and a delayed reading to cut background.
Procedure: A Total BTK-HTRF assay (Cisbio Total BTK cat #63ADK064PEG) was performed to quantitate the ability of test compounds to degrade BTK protein levels in RAMOS cells. This total protein assay monitors the steady state protein level in a sandwich assay format using two different specific antibodies after lysis of the cell-membrane. The antibodies recognise two different epitopes on BTK and are labelled with Eu3^+-cryptate (donor) and d2 (acceptor). […] The specific signal modulates positively in proportion to the total concentration of BTK.
In order to evaluate the degradation of BTK by test compounds, a total BTK degradation assay was performed (Cisbio Total BTK cat #63ADK064PEG). The frozen stock solutions of the two different BTK antibodies were diluted 20-fold with the detection buffer and pre-mixed before use in the assay. Supplemented lysis buffer (4×) was prepared by diluting the blocking reagent solution 25-fold with lysis buffer (4×) and mixing gently.
were plated at a density of 50K cells/well (8 uL) in RPMI medium with 10% FBS into 384-well white detection plates. […] The plate was read on an Biotek Synergy Neo2 plate reader using 330 nm excitation, 620 nm-donor emission and 670 nm-acceptor emission.
A further assay addresses FGFR1 (Homo sapiens, UniProt P11362). As to the kind of experiment: In vitro kinase inhibition studies (Table 9), FGFR1. It counts as biochemical.
Another assay deals with FGFR4 (Homo sapiens, UniProt P22455). Put plainly: In vitro kinase inhibition studies (Table 9), FGFR4. It counts as biochemical.
Chain of FGFR4 (P22455 22-802, species assumed): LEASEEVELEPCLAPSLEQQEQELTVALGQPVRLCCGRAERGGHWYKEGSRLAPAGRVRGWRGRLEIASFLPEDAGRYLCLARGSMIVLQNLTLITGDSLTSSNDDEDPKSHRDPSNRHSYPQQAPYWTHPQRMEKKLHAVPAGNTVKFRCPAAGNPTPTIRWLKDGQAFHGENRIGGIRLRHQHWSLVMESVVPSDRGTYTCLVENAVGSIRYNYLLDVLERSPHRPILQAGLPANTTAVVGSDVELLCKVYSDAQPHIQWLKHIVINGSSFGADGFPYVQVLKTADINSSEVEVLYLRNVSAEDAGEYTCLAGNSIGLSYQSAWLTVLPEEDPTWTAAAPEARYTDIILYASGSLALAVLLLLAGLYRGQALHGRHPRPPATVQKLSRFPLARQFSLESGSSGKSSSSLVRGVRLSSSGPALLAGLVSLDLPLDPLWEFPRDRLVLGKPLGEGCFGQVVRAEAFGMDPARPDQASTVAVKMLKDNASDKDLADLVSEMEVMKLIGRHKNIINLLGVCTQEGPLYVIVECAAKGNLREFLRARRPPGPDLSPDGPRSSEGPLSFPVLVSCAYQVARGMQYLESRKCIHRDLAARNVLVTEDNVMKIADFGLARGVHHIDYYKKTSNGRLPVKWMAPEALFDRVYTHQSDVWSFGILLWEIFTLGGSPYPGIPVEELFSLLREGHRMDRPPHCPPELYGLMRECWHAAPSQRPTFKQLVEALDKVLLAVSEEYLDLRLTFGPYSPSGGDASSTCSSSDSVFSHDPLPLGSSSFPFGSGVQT
In assay [3] the target is T2, BTK. As to the kind of experiment: In vitro BTK inhibition, biochemical IC50 (no preincubation). Particulars: Table 8. The protocol:
IC50 Values (nM) for the Inhibition of BTK Activity
as §1

For the next assay, the system named is RL cells. As to the kind of experiment: IC50 of Ibrutinib analogs against human cancer cells, RL cells (Table 14). It counts as cell-based. Particulars: Homo sapiens, RL.
The test system of assay [4] is normal pooled human fibroblasts. As to the kind of experiment: IC50 of Ibrutinib analogs against normal human cells, pooled human fibroblasts (Table 14). To be noted: Fibroblast, TABLE 9. It counts as cell-based. The protocol: Anti-cancer efficacy of exemplary compounds of this application is assessed in vitro in different cancer cell lines. Cell viability is examined following treatment at various concentration of inhibitor (0.097656-50 μM) using a cell Titer-Blue cell viability assay. 1×10^4 cells (NHF cells)/well are plated in 96-well assay plates in culture medium. All cells are grown in DMEM, IMDM and RPMI-1640 supplemented with 10% FBS. After 24 hrs, test compounds and vehicle controls are added to appropriate wells so the final volume is […] in each well. The cells are cultured for the desired test exposure period (72 hrs) at 37° C. and 5% CO2. The assay plates are removed from 37° C. incubator and 20 μl/well of CellTiter-Blue® Reagent is added. The plates are incubated using standard cell culture conditions for 1-4 hours and the plates are shaken for 10 seconds and record fluorescence at 560/590 nm.
Therapeutic index=(IC50 human fibroblasts/IC50 RLcells)

Molecules are shown by their SMILES. Where two headings read alike, the source gives them in different places.

T2 sequence (Q06187 whole entry, species assumed): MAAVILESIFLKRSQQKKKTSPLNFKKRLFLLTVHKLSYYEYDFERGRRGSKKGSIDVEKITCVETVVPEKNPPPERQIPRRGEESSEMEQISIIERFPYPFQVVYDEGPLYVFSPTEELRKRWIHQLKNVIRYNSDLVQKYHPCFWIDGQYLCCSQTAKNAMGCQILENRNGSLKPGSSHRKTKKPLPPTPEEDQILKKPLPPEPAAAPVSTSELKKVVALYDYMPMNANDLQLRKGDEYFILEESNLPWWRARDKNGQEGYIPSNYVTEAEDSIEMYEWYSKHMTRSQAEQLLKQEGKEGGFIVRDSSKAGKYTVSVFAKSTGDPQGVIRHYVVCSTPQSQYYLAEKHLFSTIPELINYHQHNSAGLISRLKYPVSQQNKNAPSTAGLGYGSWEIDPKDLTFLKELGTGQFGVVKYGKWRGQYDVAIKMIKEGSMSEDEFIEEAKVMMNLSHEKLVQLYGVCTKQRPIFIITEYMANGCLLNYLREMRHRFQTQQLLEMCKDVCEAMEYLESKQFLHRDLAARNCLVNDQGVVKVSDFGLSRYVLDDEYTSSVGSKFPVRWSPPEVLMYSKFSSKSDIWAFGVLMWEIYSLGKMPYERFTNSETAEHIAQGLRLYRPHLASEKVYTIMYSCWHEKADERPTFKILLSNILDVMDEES
Chain of FGFR1 (P11362 22-822, species assumed): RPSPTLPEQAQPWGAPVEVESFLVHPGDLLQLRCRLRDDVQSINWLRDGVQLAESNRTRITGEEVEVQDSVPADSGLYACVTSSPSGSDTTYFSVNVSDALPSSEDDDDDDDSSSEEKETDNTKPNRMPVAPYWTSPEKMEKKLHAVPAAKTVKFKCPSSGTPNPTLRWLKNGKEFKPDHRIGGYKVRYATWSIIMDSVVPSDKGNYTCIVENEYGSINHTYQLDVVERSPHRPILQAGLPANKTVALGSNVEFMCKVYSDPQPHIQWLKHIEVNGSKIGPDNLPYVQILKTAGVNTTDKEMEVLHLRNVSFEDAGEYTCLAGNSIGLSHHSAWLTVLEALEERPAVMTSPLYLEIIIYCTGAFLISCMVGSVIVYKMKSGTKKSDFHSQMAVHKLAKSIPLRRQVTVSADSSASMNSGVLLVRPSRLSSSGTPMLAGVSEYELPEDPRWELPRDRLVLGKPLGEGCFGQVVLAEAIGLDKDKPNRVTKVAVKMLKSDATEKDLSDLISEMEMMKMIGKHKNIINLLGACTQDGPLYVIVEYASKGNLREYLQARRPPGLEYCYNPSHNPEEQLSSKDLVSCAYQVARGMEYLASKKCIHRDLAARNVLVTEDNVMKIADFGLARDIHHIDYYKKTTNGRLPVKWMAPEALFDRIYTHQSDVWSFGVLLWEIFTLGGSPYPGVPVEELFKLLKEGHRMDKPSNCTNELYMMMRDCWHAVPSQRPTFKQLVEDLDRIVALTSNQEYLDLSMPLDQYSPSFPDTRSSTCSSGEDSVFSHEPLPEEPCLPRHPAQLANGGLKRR
Procedure for RL cells: 1×10^4 cells (NHF cells)/well are plated in 96-well assay plates in culture medium. […] After 24 hrs, test compounds and vehicle controls are added to appropriate wells so the final volume is 100p in each well. The cells are cultured for the desired test exposure period (72 hrs) at 37° C. and 5% CO2. The assay plates are removed from 37° C. incubator and 20 μl/well of CellTiter-Blue® Reagent is added. The plates are incubated using standard cell culture conditions for 1-4 hours and the plates are shaken for 10 seconds and record fluorescence at 560/590 nm. […] Therapeutic index=(IC50 human fibroblasts/IC50 […] )

As to `C[C@H]1CC[C@@H](Nc2ncnc3[nH]ccc23)CN1S(=O)(=O)c1c(F)c(F)c(F)c(F)c1F` [Compound 5-8, N-((3R,6S)-6-methyl-1-((perfluorophenyl)sulfonyl)piperidin-3-yl)-7H-pyrrolo[2,3-d]pyrimidin-4-amine], the “JAK3 (IC50, nM)” value at JAK3 is on record as “E (E: >1000 nM to ≤ 0,000 nM)”.
`CN(CCNc1ncnc2[nH]ccc12)S(=O)(=O)c1c(F)c(F)c(F)c(F)c1F` [Compound 5-11, N-(2-((7H-pyrrolo[2,3-d]pyrimidin-4-yl)amino)ethyl)-2,3,4,5,6-pentafluoro-N-methylbenzenesulfonamide]: at JAK3, the “JAK3 (IC50, nM)” value is listed as “E (E: >1000 nM to ≤ 0,000 nM)”.
Take `O=C(c1ccc(Oc2ccccc2)cc1Cl)c1c[nH]c2ncnc(N[C@@H]3CC[C@@H](CO)OC3)c12` [ARQ-531]: the “enzyme activity after washout” value at BTK [1] is on record as “recovered all of its activity”.
What is called IC50 is the point on the concentration scale where inhibition reaches its midpoint. On to `COCCOc1ccc(Nc2ncc(F)c(NCCCNS(=O)(=O)c3c(F)c(F)c(F)c(F)c3F)n2)cc1` [Compound 5-7, 2,3,4,5,6-pentafluoro-N-(3-((5-fluoro-2-((4-(2-methoxyethoxy)phenyl)amino)pyrimidin-4-yl)amino)propyl)benzenesulfonamide], for which the “Percent residual BTK after 24 hours with test compound (5 μM)” value at BTK [2] is reported as 63%. Moreover, the IC50 at FGFR1 and at FGFR4 was 300 to 2000 nM each time.
Regarding `COCCOc1ccc(Nc2ncc(F)c(Nc3cccc(NS(=O)(=O)c4c(F)c(F)c(F)c(F)c4F)c3)n2)cc1` [Compound 5-15, 2,3,4,5,6-pentafluoro-N-(3-((5-fluoro-2-((4-(2-methoxyethoxy)phenyl)amino)pyrimidin-4-yl)amino)phenyl)benzenesulfonamide], the half-inhibitory concentration (IC50) at BTK [3] lay within 100 to 1000 nM; at FGFR1 it was 0.1 to 10 nM; against FGFR4 it was 10 to 300 nM. Also, the “Percent residual BTK after 24 hours with test compound (5 μM)” value at BTK [2] was 75%.
Turning to `O=S(=O)(NCCNc1ncnc2[nH]ccc12)c1c(F)c(F)c(F)c(F)c1F` [Compound 5-10, N-(2-((7H-pyrrolo[2,3-d]pyrimidin-4-yl)amino)ethyl)-2,3,4,5,6-pentafluorobenzene sulfonamide], on JAK3, the “JAK3 (IC50, nM)” value is reported as “E (E: >1000 nM to ≤ 0,000 nM)”.
On to `C=CC(=O)N1CCC[C@@H](n2nc(-c3ccc(Oc4ccccc4)cc3)c3c(N)ncnc32)C1` [Ibrutinib, reference compound], for which the half-inhibitory concentration (IC50) in the assay on RL cells (RL cells, read-out: IC50 in RL cells) worked out at 10300 nM; in the assay with RL cells (TABLE 9, read-out: RL (IC50)), 10300 nM; with RL cells (Table 14, RL human non-Hodgkin's lymphoma B cell line, read-out: RL (IC50)) it was 10300 nM; in assay [4], 26800 nM.
